Assay results: patent US20220315572A1, “SUBSTITUTED CYANOPYRROLIDINES WITH ACTIVITY AS USP30 INHIBITORS” (MISSION THERAPEUTICS LIMITED, priority 2019, published 2022)
Like-named read-outs stand apart in the source and are kept apart here.

What was measured:
[1] = target: T1, USP30 (Homo sapiens, UniProt Q70CQ3); assay: USP30 biochemical IC50 assay (fluorescence polarisation)
T1 construct: purchased Boston Biochem E582
T1 sequence (Q70CQ3 57-517 limits assumed): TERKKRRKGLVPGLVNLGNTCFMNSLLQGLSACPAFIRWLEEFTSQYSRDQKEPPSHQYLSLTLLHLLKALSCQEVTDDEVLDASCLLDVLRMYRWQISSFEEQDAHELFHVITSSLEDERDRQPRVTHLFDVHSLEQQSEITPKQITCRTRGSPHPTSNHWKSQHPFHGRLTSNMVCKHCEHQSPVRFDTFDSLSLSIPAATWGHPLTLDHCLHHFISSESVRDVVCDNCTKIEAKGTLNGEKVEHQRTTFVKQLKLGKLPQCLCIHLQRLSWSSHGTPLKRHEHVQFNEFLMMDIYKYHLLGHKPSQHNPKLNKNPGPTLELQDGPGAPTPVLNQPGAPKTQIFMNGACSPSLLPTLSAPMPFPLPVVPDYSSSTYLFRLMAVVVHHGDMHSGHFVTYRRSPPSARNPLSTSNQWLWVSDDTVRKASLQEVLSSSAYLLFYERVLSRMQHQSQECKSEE
Experimental: Dilution plates were prepared at 21 times the final concentration (2100 μM for a final concentration of 100 μM) in 50% DMSO in a 96-well polypropylene V-bottom plate (Greiner #651201). A typical 8-point dilution series would be 100, 30, 10, 3, 1, 0.3, 0.1, 0.03 μM final. Reactions were performed in duplicate in black 384 well plates (small volume, Greiner 784076) in a final reaction volume of 21 μl. Either […] of 50% DMSO or diluted compound was added to the plate. USP30 (Boston Biochem #E582) was diluted in reaction buffer (40 mM Tris, pH 7.5, 0.005% Tween 20, 0.5 mg/ml BSA, 5 mM beta-mercaptoethanol) to achieve a final assay concentration of 4 nM, and 10 μl of diluted USP30 was added to the compound. Enzyme and compound were incubated for 30 min at room temp. Reactions were initiated by the addition of 50 nM of TAMRA labelled peptide linked to ubiquitin via an iso-peptide bond as fluorescence polarisation substrate. Reactions were read immediately after addition of substrate and following a 2-hour incubation at room temperature. Readings were performed on a Pherastar Plus (BMG Labtech). λ Excitation 540 nm; λ Emission 590 nm.

[2] = target: T2, UCHL1 (Homo sapiens, UniProt P09936); assay: DUB biochemical IC50 assay, UCHL1
T2 sequence (P09936 1-223): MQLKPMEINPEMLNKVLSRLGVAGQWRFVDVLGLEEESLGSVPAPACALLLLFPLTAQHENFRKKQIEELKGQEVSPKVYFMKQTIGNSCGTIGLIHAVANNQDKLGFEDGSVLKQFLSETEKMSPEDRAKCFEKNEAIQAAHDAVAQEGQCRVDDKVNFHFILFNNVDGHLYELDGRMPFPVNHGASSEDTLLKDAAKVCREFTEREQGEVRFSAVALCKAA

[3] = system: USP2, USP10, USP16, USP21, USP22, USP25, USP28, USP35, USP46; assay: DUB biochemical IC50 assays, nine DUBs; details: for DUB selectivity preference for USP30 v 9 DUBs / IC50: range over the nine DUBs; for IC50: Ref. Ex. C excl. USP22, Ref. Ex. D excl. USP2, 46; for fold more potent against USP30 than against the nine DUBs, minimum: lowest of USP2, USP10, USP16, USP21, USP22, USP25, USP28, USP35, USP46
[4] = target: Cathepsin B (Homo sapiens, UniProt P07858); assay: Cathepsin IC50, cathepsin B; type: biochemical
[5] = target: T3, Cathepsin K (Homo sapiens, UniProt P43235); assay: Cathepsin IC50, cathepsin K; type: biochemical
T3 sequence (P43235 115-329): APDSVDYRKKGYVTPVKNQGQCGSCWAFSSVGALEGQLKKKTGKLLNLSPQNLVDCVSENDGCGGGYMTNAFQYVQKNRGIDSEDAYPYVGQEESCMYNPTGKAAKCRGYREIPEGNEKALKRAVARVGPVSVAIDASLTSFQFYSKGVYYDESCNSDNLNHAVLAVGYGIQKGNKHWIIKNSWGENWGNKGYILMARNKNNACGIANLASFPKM

[6] = target: Cathepsin L (Homo sapiens, UniProt P07711); assay: Cathepsin IC50, cathepsin L; type: biochemical
Sequence of Cathepsin L (P07711 114-333, species assumed): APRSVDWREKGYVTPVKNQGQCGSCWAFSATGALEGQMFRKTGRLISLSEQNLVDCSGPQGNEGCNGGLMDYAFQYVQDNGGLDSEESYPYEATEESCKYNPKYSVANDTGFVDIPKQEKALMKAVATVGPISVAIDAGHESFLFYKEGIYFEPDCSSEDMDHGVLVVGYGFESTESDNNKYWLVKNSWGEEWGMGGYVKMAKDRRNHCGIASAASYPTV

[7] = target: Cathepsin S (Homo sapiens, UniProt P25774); assay: Cathepsin IC50, cathepsin S; type: biochemical
Sequence of Cathepsin S (P25774 115-331, species assumed): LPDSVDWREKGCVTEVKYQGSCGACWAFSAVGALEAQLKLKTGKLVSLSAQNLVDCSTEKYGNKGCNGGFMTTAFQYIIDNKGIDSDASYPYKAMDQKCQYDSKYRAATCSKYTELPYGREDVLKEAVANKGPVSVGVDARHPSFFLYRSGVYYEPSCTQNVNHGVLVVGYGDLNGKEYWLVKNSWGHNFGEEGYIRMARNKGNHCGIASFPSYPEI

[8] = target: Cathepsin V (Homo sapiens, UniProt O60911); assay: Cathepsin IC50, cathepsin V; type: biochemical
Sequence of Cathepsin V (O60911 114-334, species assumed): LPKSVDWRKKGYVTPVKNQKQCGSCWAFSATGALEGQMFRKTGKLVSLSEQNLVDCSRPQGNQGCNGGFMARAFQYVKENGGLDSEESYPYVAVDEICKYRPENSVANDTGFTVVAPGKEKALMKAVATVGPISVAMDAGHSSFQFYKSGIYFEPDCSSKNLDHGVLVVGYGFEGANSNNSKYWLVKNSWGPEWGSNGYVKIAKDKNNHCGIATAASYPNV

[9] = system: Cathepsins B, K, L, S, V; assay: Cathepsin IC50, range over B, K, L, S, V; type: biochemical; details: for Selectivity preference for USP30 v cathepsins: range over cathepsins B, S; for Selectivity preference for USP30 v cathepsins / fold more potent against USP30 than against the cathepsins, minimum: K, L; for IC50: range over the five cathepsins; for fold more potent against USP30 than against the cathepsins, minimum: lowest of cathepsins B, S and V
[10] = target: T4, Endogenous USP30 (Homo sapiens, UniProt Q70CQ3); assay: USP30 endogenous cellular target engagement western blot assay (Cell TE WB); type: cell-based; details: Hela cells stably overexpressing YFP-Parkin, 1 hour
T4 construct: USP30 endogenous cellular target engagement western blot (WB) assay; endogenous in cells; host or cells: HeLa stably overexpressing YFP-Parkin
T4 sequence (Q70CQ3 1-517): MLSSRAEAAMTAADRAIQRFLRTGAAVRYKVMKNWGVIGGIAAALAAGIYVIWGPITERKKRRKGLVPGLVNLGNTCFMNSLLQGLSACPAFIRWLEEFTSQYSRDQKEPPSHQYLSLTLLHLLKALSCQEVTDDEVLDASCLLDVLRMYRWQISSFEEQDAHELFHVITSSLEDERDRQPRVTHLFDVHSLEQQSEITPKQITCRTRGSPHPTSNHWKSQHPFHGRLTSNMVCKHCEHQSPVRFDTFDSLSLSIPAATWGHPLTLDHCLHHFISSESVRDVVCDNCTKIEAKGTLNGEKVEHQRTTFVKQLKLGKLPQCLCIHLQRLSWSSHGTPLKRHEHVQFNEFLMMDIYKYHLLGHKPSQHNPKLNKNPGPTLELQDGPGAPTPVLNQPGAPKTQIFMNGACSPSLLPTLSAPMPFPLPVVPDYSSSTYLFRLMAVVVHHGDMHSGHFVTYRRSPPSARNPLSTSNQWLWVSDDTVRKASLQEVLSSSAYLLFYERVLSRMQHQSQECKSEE
Experimental: Hela cells stably overexpressing YFP-Parkin were seeded into 6 well dishes. Once adhered, cells were treated with appropriate concentrations of test compounds or vehicle control for 1 hour at 37° C., 5% CO2. Whole cell lysates were prepared by scraping the cells into cold PBS, centrifuging and lysing in lysis buffer (50 mM Tris-base, pH 7.5, 50 mM NaCl, 1% NP-40/Igepal CA-630, 2 mM MgCl2, 10% Glycerol, 5 mM beta-mercaptoethanol, cOmplete mini tablets EDTA free (Roche), PhosStop tablets (Roche)) for 10 mins. The equivalent of 20 μg of protein from the cleared cell lysate was incubated with a final conc of 2.5 μM HA-Ahx-Ahx-Ub-VME probe at room temperature. The reaction was stopped by addition of 5×SDS sample loading buffer and proteins separated by SDS PAGE and western blotting. USP30 was detected using an anti-USP30 Sheep S746D antibody (MRC PPU Reagents and Services) and a rabbit anti sheep secondary IgG (H+L) horseradish peroxidase conjugated (Thermo #31480) and visualised using ECL reagent (GE #RPN2109) on a GE LAS4000 imager. Target engagement was measured by quantitation of the bands corresponding to USP30 and USP30 bound to the Ub-VME probe and expression of this proportion compared to vehicle treated control.
Cell TE WB: USP30 endogenous cellular target engagement western blot (WB) assay. Assays the activity of compounds against USP30 in cells using an irreversible activity probe to monitor USP30 activity.

[11] = USP30 biochemical IC50 assay, exemplary compounds, read-out: IC50
[12] = Reference Examples, read-out: USP30 IC50

| SMILES | IC50 [1, 11] | DUB selectivity preference for USP30 v UCHL1 [2] | IC50 [2] | IC50 [3] | IC50 [4] | IC50 [5] | IC50 [6] | IC50 [7] | IC50 [8] | IC50 [9] | EC50 [10] | IC50 [1, 12] | IC50 ([1]; read-out: DUB IC50 (μM) USP30) | fold more potent against USP30 than UCHL1 [2] | DUB selectivity preference for USP30 v 9 DUBs [3] | Selectivity preference for USP30 v cathepsins [9] | fold more potent against USP30 than against the cathepsins, minimum [9] | fold more potent against USP30 than against the nine DUBs, minimum [3] |
| --- | --- | --- | --- | --- | --- | --- | --- | --- | --- | --- | --- | --- | --- | --- | --- | --- | --- | --- |
| COc1cccc(-c2cc(C(=O)N[C@@H]3CCN(C#N)C3)on2)c1 [A, reference compound] |  |  |  | 0.19 to 9.9 µM | 4.5 µM | 0.79 µM | 2.8 µM | 8.8 µM | 5.8 µM | 0.79 to 8.8 µM |  | 0.07 µM |  |  | 2.7-141 | 11-126 |  | 2.7 fold |
| N#Cc1cccc(-c2ccn3c(C(=O)N[C@@H]4CCN(C#N)C4)cnc3c2)c1 [D] |  |  |  | 0.19 to 5.1 µM |  |  | 2.3 µM | 6.9 µM | 3 µM | 2.3 to 6.9 µM |  | 0.041 µM |  |  | 4.6-124 | 56-168 | 56 fold | 4.6 fold |
| C[C@H]1CN(C#N)C[C@@H]1NC(=O)c1cnc(-c2ccccc2)s1 [C, reference compound] |  |  |  | 0.025 to 8.9 µM | 4.8 µM | 2.4 µM | 1.5 µM | 5.9 µM | 4 µM | 1.5 to 5.9 µM |  | 0.026 µM |  |  | 0.96-342 | 58-227 | 58 fold | 0.96 fold |
| N#CN1CCC(NC(=O)c2cc(-c3cccc(Cl)c3)no2)C1 (stereo not shown) [B, reference compound] |  |  |  | 0.35 to 10.2 µM | 2.9 µM | 1.1 µM | 0.79 µM | 2.3 µM | 4.2 µM | 0.79 to 4.2 µM |  | 0.044 µM |  |  | 8-232 | 18-95 | 18 fold | 8 fold |

Now from value to compound, other results behind:

| IC50 [1, 11] | DUB selectivity preference for USP30 v UCHL1 [2] | IC50 [2] | IC50 [3] | IC50 [4] | IC50 [5] | IC50 [6] | IC50 [7] | IC50 [8] | IC50 [9] | EC50 [10] | IC50 [1, 12] | IC50 ([1]; read-out: DUB IC50 (μM) USP30) | fold more potent against USP30 than UCHL1 [2] | SMILES | DUB selectivity preference for USP30 v 9 DUBs [3] | Selectivity preference for USP30 v cathepsins [9] | fold more potent against USP30 than against the cathepsins, minimum [9] | fold more potent against USP30 than against the nine DUBs, minimum [3] |
| --- | --- | --- | --- | --- | --- | --- | --- | --- | --- | --- | --- | --- | --- | --- | --- | --- | --- | --- |
| 0.037 µM | 8100 | > 300 µM | ≥ 6.9 µM | > 300 µM | 113 µM | 32.8 µM | > 300 µM | > 300 µM | 32.8 to 300 µM | 89 nM |  |  |  | COC[C@@H]1C[C@@H](NC(=O)c2nnc(-c3cccc(C#N)c3)o2)CN1C#N [Example 2, N-((3R,5S)-1-Cyano-5-(methoxymethyl)pyrrolidin-3-yl)-5-(3-cyanophenyl)-1,3,4-oxadiazole-2-carboxamide] | 186-8100 | 880-8100 |  |  |
|  |  | 0.25 µM |  | 5.3 µM | 2.7 µM | 1 µM |  |  | 1 to 5.3 µM |  | 0.31 µM | 0.31 µM | 0.8 fold | N#CN1CC[C@H](C(=O)Nc2ncc(-c3ccccc3)s2)C1 [E, reference compound] |  | 3.2-17 | 3.2 fold |  |
|  | 4.6 | 3.2 µM |  | 9.8 µM | 0.86 µM | 0.24 µM | 2.1 µM | 0.82 µM | 0.24 to 9.8 µM |  | 0.7 µM |  | 4.6 fold | N#CN1CCC(C(=O)Nc2nnc(-c3ccccc3)s2)C1 (stereo not shown) [F, reference compound] |  | 0.34-14 | 0.34 fold |  |
| 0.034 µM | 8800 | > 300 µM | ≥ 12.4 µM | > 300 µM | 24.5 µM | > 300 µM | > 300 µM | 162 µM | 24.5 to 300 µM | 72 nM |  |  |  | COc1ccc(C#N)cc1-c1nnc(C(=O)N[C@@H]2C[C@@H](C)N(C#N)C2)o1 [Example 5, 5-(5-Cyano-2-methoxyphenyl)-N-((3R,5R)-1-cyano-5-methylpyrrolidin-3-yl)-1,3,4-oxadiazole-2-carboxamide] | 360-8800 | 720-8800 |  |  |
|  |  | 6.8 µM |  |  |  |  |  |  |  |  | 4.4 µM | 4.4 µM | 1.5 fold | CC1CC(C(=O)Nc2ncc(-c3ccccc3)s2)CN1C#N (stereo not shown) [G, reference compound] |  |  |  |  |
